Data from patent US20230027985A1, “SUBSTITUTED HYDANTOINAMIDES AS ADAMTS7 ANTAGONISTS” (Bayer Aktiengesellschaft, priority 2019, published 2023).

What was measured:
[1] = target: T1, Purified recombinant ADAMTS-7 (rat prodomain/human catalytic domain, SEQ ID No. 01 or 02) (Homo sapiens, UniProt Q9UKP4); experiment: Assay for ADAMTS-7 enzymatic activity (FRET substrate cleavage); type: biochemical; conditions: FRET substrate SEQ ID No. 11, 120 min at 32° C.; read-out: ADAMTS7-IC50
T1 construct: rat ADAMTS-7 signal peptide + prodomain (rat 1-217, Q1EHB3) (N); 2xStrep tag (C); 6xHis tag (C); made in house; host or cells: Expi293 cells
T1 sequence (Q9UKP4 237-537): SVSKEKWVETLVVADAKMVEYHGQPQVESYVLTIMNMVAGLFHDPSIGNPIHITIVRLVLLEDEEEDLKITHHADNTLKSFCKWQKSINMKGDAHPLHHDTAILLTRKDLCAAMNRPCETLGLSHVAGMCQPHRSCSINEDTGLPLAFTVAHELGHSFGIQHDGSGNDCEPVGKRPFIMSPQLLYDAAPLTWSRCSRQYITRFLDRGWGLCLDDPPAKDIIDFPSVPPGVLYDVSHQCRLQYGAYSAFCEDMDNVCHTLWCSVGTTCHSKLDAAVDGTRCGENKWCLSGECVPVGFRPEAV
Summary of the method: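 About 20 nM enzyme in 20 mM HEPES pH 8.0, 150 mM NaCl, 5 mM CaCl2, 0.004% Brij and 10 μM ZnCl2 was mixed with compound in DMSO and a QXL520-quenched FRET peptide from thrombospondin-1 (275-289). After 120 min at 32 °C, fluorescence was read at 485/520 nm. IC50 came from percent inhibition versus concentration.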

ADAMTS4 = target: T2, ADAMTS4 (Homo sapiens, UniProt O75173); experiment: Selectivity assay for ADAMTS-7 modulators (FRET), ADAMTS4; type: biochemical; conditions: 50 nM enzyme (R&D 4307-AD), 1 μM Dabcyl/Edans FRET substrate, 120 min at 32° C.
T2 construct: purchased R&D 4307-AD
T2 sequence (O75173 213-685 limits assumed): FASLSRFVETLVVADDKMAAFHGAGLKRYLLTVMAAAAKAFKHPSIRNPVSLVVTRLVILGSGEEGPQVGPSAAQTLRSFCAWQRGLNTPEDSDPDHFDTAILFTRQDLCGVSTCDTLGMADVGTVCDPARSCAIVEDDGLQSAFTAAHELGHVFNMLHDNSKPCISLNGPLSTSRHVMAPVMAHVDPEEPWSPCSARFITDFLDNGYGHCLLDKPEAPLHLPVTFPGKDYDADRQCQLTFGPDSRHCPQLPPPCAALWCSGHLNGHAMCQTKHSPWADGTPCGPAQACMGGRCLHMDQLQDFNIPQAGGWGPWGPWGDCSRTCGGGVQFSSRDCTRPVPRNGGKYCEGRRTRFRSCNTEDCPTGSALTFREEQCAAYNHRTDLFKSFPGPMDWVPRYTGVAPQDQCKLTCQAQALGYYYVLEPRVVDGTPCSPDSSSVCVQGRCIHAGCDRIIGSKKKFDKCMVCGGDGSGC
Summary of the method: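 Enzyme in 50 mM Tris pH 7.5, 150 mM NaCl, 10 mM CaCl2, 0.05% Brij, preincubated with compound in DMSO; reaction started with FRET substrate. Fluorescence increase read after 120 min at 32° C; IC50 from percent inhibition versus compound concentration.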

| IC50 [1] [nM] | IC50 (ADAMTS4) [nM] | Compound |
| --- | --- | --- |
| 78 | 5500 | O=C1NC(=O)C(CNC(=O)c2cnn(-c3ccc(F)cc3F)n2)(c2nccs2)N1 (single isomer, unassigned; ent-2) [Example 116, ent-2-(2,4-difluorophenyl)-N-{[2,5-dioxo-4-(1,3-thiazol-2-yl)imidazolidin-4-yl]methyl}-2H-1,2,3-triazole-4-carboxamide] |
| 13 | 2300 | CC(C)C1(CNC(=O)c2cnn(-c3cccc(F)c3)n2)NC(=O)NC1=O (single isomer, unassigned; ent-2) [Example 119, ent-2-(3-fluorophenyl)-N-[(4-isopropyl-2,5-dioxoimidazolidin-4-yl)methyl]-2H-1,2,3-triazole-4-carboxamide] |
| 78 | 2600 | CC(C)C1(CNC(=O)c2cnn(-c3cccc(C#N)c3)n2)NC(=O)NC1=O (single isomer, unassigned; ent-2) [Example 121, ent-2-(3-cyanophenyl)-N-[(4-isopropyl-2,5-dioxoimidazolidin-4-yl)methyl]-2H-1,2,3-triazole-4-carboxamide] |
| 7 | 910 | CC(C)C1(CNC(=O)c2cnn(-c3ccc(F)c(F)c3)n2)NC(=O)NC1=O (single isomer, unassigned; ent-2) [Example 123, ent-2-(3,4-difluorophenyl)-N-[(4-isopropyl-2,5-dioxoimidazolidin-4-yl)methyl]-2H-1,2,3-triazole-4-carboxamide] |
| 7 | 1000 | CC(C)C1(CNC(=O)c2cnn(-c3ccc(Cl)c(F)c3)n2)NC(=O)NC1=O (single isomer, unassigned; ent-2) [Example 125, ent-2-(4-chloro-3-fluorophenyl)-N-[(4-isopropyl-2,5-dioxoimidazolidin-4-yl)methyl]-2H-1,2,3-triazole-4-carboxamide] |
| 190 | 12000 | CC(C)C1(CNC(=O)c2cnn(-c3ccc(F)c(Cl)c3)n2)NC(=O)NC1=O (single isomer, unassigned; ent-2) [Example 126, ent-2-(3-chloro-4-fluorophenyl)-N-[(4-isopropyl-2,5-dioxoimidazolidin-4-yl)methyl]-2H-1,2,3-triazole-4-carboxamide] |
| 2 | 130 | Cn1ccnc1C1(CNC(=O)c2cnn(-c3ccc(F)cc3)n2)NC(=O)NC1=O (single isomer, unassigned; ent-2) [Example 144, ent-2-(4-fluorophenyl)-N-{[4-(1-methyl-1H-imidazol-2-yl)-2,5-dioxoimidazolidin-4-yl]methyl}-2H-1,2,3-triazole-4-carboxamide] |
| 2 | 41 | Cn1ccnc1C1(CNC(=O)c2cnn(-c3ccc(Cl)c(F)c3)n2)NC(=O)NC1=O (single isomer, unassigned; ent-2) [Example 145, ent-2-(4-chloro-3-fluorophenyl)-N-{[4-(1-methyl-1H-imidazol-2-yl)-2,5-dioxoimidazolidin-4-yl]methyl}-2H-1,2,3-triazole-4-carboxamide] |
| 3 | 46 | Cn1ccnc1C1(CNC(=O)c2cnn(-c3ccc(F)c(F)c3)n2)NC(=O)NC1=O (single isomer, unassigned; ent-2) [Example 147, ent-2-(3,4-difluorophenyl)-N-{[4-(1-methyl-1H-imidazol-2-yl)-2,5-dioxoimidazolidin-4-yl]methyl}2H-1,2,3-triazole-4-carboxamide] |
| 83 | 8900 | CC1(CNC(=O)c2cnn(-c3ccc(F)cc3)n2)NC(=O)NC1=O (single isomer, unassigned; ent-2) [Example 153, ent-2-(4-fluorophenyl)-N-[(4-methyl-2,5-dioxoimidazolidin-4-yl)methyl]-2H-1,2,3-triazole-4-carboxamide] |
| 13 | 580 | O=C1NC(=O)[C@](CNC(=O)c2cnn(-c3cccc(F)c3)n2)(C2CC2)N1 [Example 1, N-{[(4R)-4-cyclopropyl-2,5-dioxoimidazolidin-4-yl]methyl}-2-(3-fluorophenyl)-2H-1,2,3-triazole-4-carboxamide] |
| 79 | 2200 | CC(C)(C)C1(CNC(=O)c2cnn(-c3ccc(F)cc3)n2)NC(=O)NC1=O (stereo not drawn) [Example 3, ent-N-{[4-tert-butyl-2,5-dioxoimidazolidin-4-yl]methyl}-2-(4-fluorophenyl)-2H-1,2,3-triazole-4-carboxamide] |
| 120 | 4600 | O=C1NC(=O)[C@](CNC(=O)c2cnn(-c3ccc(C(F)(F)F)c(F)c3)n2)(C2CC2)N1 [Example 5, N-{[(4R)-4-cyclopropyl-2,5-dioxoimidazolidin-4-yl]methyl}-2-[3-fluoro-4-(trifluoromethyl)phenyl]-2H-1,2,3-triazole-4-carboxamide] |
| 7 | 175 | O=C1NC(=O)[C@](CNC(=O)c2cnn(-c3ccc(F)c(F)c3)n2)(C2CC2)N1 [Example 8, N-{[(4R)-4-cyclopropyl-2,5-dioxoimidazolidin-4-yl]methyl}-2-(3,4-difluorophenyl)-2H-1,2,3-triazole-4-carboxamide] |
| 26 | 480 | O=C1NC(=O)[C@](CNC(=O)c2cnn(-c3ccc(Cl)cc3)n2)(C2CC2)N1 [Example 9, 2-(4-chlorophenyl)-N-{[(4R)-4-cyclopropyl-2,5-dioxoimidazolidin-4-yl]methyl}-2H-1,2,3-triazole-4-carboxamide] |
| 21 | 450 | O=C1NC(=O)[C@](CNC(=O)c2cnn(-c3cccc(Cl)c3)n2)(C2CC2)N1 [Example 10, 2-(3-chlorophenyl)-N-{[(4R)-4-cyclopropyl-2,5-dioxoimidazolidin-4-yl]methyl}-2H-1,2,3-triazole-4-carboxamide] |
| 470 | 10000 | O=C1NC(=O)[C@](CNC(=O)c2cnn(-c3ccccc3Cl)n2)(C2CC2)N1 [Example 11, 2-(2-chlorophenyl)-N-{[(4R)-4-cyclopropyl-2,5-dioxoimidazolidin-4-yl]methyl}-2H-1,2,3-triazole-4-carboxamide] |
| 980 | 12000 | Cc1ccccc1-n1ncc(C(=O)NC[C@@]2(C3CC3)NC(=O)NC2=O)n1 [Example 12, N-{[(4R)-4-cyclopropyl-2,5-dioxoimidazolidin-4-yl]methyl}-2-(2-methylphenyl)-2H-1,2,3-triazole-4-carboxamide] |
| 47 | 950 | Cc1ccc(-n2ncc(C(=O)NC[C@@]3(C4CC4)NC(=O)NC3=O)n2)cc1 [Example 13, N-{[(4R)-4-cyclopropyl-2,5-dioxoimidazolidin-4-yl]methyl}-2-(4-methylphenyl)-2H-1,2,3-triazole-4-carboxamide] |
| 400 | 17000 | N#Cc1ccc(-n2ncc(C(=O)NC[C@@]3(C4CC4)NC(=O)NC3=O)n2)cc1 [Example 14, 2-(4-cyanophenyl)-N-{[(4R)-4-cyclopropyl-2,5-dioxoimidazolidin-4-yl]methyl}-2H-1,2,3-triazole-4-carboxamide] |
| 32 | 600 | N#Cc1cccc(-n2ncc(C(=O)NC[C@@]3(C4CC4)NC(=O)NC3=O)n2)c1 [Example 17, 2-(3-cyanophenyl)-N-{[(4R)-4-cyclopropyl-2,5-dioxoimidazolidin-4-yl]methyl}-2H-1,2,3-triazole-4-carboxamide] |
| 170 | 2200 | Cc1cccc(-n2ncc(C(=O)NC[C@@]3(C4CC4)NC(=O)NC3=O)n2)c1 [Example 18, N-{[(4R)-4-cyclopropyl-2,5-dioxoimidazolidin-4-yl]methyl}-2-(3-methylphenyl)-2H-1,2,3-triazole-4-carboxamide] |
| 100 | 6000 | COc1ccc(-n2ncc(C(=O)NC[C@@]3(C4CC4)NC(=O)NC3=O)n2)cc1 [Example 27, N-{[(4R)-4-cyclopropyl-2,5-dioxoimidazolidin-4-yl]methyl}-2-(4-methoxyphenyl)-2H-1,2,3-triazole-4-carboxamide] |
